Earlier results as cited in article PMC4508061, “Selectivity Profiling and Biological Activity of Novel β-Carbolines as Potent and Selective DYRK1 Kinase Inhibitors” (PLoS ONE, 2015).

How the values were obtained:
[1] = tested on: DYRK1A; details: cited from earlier work
[2] = target: T1, DYRK2 (Homo sapiens, UniProt Q92630); details: 5 μM; cited from earlier work
T1 construct: purchased ProQinase (Freiburg, Germany)
T1 sequence (Q92630 1-601): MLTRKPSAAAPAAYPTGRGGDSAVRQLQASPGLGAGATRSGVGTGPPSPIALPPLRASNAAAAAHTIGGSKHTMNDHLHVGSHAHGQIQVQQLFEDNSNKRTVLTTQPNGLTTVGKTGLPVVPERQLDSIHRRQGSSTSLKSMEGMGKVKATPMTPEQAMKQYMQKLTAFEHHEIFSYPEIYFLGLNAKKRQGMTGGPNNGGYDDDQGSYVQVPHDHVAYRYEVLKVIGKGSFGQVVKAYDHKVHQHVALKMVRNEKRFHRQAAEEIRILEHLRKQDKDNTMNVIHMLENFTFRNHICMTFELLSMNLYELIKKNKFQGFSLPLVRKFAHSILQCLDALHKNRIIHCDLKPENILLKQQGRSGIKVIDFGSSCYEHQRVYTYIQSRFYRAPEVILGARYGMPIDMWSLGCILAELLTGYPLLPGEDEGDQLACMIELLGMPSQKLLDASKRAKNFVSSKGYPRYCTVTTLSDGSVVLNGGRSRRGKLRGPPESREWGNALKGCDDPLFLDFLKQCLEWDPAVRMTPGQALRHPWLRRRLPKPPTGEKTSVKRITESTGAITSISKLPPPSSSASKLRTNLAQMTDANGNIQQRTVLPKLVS

[3] = target: CLK1 (Homo sapiens, UniProt P49759); parameters: purchased ProQinase (Freiburg, Germany); details: 5 μM; cited from earlier work
CLK1, sequence (P49759 whole entry): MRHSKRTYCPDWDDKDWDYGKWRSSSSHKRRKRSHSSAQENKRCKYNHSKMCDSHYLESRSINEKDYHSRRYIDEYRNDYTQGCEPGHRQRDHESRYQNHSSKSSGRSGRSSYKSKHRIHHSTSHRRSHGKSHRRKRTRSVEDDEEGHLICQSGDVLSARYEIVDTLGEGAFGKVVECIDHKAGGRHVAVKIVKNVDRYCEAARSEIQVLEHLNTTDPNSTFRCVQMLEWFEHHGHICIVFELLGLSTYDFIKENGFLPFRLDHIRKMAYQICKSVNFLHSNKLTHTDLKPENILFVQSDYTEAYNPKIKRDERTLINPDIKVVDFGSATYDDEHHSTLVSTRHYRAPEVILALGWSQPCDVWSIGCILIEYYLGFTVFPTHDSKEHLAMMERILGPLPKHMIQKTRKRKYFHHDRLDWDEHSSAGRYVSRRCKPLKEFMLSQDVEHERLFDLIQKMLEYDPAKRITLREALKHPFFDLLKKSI

[4] = target: DYRK1B (Homo sapiens, UniProt Q9Y463); parameters: purchased ProQinase (Freiburg, Germany); details: 5 μM; cited from earlier work
DYRK1B, sequence (Q9Y463 whole entry): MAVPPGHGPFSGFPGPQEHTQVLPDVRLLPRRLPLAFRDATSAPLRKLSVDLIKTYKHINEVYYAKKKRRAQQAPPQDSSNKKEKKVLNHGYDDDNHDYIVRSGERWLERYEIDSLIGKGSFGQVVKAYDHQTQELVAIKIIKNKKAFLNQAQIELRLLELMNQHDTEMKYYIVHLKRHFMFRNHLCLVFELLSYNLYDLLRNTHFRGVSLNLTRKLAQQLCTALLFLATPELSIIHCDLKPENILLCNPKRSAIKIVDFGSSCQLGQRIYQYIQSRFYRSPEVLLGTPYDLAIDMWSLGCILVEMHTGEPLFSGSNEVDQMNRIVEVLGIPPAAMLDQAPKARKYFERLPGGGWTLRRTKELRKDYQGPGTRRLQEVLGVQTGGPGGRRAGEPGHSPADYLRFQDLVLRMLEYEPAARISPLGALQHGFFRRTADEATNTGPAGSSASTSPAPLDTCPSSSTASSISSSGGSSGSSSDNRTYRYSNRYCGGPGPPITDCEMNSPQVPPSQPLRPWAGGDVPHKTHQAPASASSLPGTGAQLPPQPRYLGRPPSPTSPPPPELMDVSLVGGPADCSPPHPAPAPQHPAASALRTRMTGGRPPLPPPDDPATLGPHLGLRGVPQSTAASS

[5] = target: PIM1 (Homo sapiens, UniProt P11309); parameters: purchased ProQinase (Freiburg, Germany); details: 5 μM; cited from earlier work
PIM1, sequence (P11309 whole entry): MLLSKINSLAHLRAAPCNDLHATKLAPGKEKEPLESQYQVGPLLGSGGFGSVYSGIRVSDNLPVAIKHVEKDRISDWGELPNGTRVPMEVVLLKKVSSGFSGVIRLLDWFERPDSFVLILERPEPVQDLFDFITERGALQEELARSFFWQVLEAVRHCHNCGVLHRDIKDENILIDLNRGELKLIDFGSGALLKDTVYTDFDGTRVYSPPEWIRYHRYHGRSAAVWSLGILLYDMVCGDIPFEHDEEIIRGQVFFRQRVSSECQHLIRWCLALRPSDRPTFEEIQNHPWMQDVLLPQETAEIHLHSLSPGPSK

[6] = target: HIPK1 (Homo sapiens, UniProt Q86Z02); parameters: purchased ProQinase (Freiburg, Germany); details: 5 μM; cited from earlier work
HIPK1, sequence (Q86Z02 whole entry): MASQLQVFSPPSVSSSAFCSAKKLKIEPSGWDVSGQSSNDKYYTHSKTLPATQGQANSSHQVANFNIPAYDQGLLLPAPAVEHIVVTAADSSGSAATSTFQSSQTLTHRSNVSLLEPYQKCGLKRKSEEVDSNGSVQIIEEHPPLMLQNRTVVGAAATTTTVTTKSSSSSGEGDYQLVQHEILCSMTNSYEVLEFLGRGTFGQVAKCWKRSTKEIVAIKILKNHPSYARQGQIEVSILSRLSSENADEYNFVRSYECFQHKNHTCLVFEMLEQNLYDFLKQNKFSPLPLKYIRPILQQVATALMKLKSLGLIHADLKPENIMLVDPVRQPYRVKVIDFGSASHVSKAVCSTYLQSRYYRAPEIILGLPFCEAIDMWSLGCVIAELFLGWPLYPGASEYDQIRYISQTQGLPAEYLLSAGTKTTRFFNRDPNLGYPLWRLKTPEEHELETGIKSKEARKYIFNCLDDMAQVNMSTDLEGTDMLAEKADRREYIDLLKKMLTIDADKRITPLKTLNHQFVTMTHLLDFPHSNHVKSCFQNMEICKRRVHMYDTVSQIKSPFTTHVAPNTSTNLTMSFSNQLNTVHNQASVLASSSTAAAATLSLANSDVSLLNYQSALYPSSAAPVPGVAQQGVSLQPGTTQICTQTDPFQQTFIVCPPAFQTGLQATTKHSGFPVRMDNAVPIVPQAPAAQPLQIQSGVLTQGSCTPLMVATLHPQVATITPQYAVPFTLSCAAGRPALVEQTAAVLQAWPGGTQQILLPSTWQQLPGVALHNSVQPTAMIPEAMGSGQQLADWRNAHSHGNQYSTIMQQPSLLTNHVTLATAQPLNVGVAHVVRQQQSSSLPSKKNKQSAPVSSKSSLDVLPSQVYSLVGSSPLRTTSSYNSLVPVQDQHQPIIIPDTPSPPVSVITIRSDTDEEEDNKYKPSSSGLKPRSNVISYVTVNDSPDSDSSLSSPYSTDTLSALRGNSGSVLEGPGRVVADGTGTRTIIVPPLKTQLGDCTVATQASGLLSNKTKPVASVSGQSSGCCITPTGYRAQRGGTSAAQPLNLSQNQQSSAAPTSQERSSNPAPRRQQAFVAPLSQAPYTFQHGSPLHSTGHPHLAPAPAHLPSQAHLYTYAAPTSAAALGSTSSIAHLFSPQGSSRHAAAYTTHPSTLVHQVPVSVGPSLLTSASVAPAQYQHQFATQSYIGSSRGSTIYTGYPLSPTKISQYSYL

[7] = target: T2, CLK3 (Homo sapiens, UniProt P49761); details: 5 μM; cited from earlier work
T2 construct: purchased ProQinase (Freiburg, Germany)
T2 sequence (P49761 whole entry): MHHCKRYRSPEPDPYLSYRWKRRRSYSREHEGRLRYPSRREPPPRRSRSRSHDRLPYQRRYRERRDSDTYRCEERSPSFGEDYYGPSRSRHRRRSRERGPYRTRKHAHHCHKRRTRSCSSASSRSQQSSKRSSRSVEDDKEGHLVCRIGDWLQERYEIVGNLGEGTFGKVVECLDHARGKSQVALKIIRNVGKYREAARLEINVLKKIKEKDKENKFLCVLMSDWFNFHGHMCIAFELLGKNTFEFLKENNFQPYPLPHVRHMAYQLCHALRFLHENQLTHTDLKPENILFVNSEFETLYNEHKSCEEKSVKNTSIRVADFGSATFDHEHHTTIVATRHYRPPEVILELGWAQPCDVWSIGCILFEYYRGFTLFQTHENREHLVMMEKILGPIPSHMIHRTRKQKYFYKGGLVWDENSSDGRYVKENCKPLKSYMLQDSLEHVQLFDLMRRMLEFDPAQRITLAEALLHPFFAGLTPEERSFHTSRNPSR

[8] = target: T3, HIPK4 (Homo sapiens, UniProt Q8NE63); parameters: purchased ProQinase (Freiburg, Germany); details: 5 μM; cited from earlier work
T3 sequence (Q8NE63 1-616): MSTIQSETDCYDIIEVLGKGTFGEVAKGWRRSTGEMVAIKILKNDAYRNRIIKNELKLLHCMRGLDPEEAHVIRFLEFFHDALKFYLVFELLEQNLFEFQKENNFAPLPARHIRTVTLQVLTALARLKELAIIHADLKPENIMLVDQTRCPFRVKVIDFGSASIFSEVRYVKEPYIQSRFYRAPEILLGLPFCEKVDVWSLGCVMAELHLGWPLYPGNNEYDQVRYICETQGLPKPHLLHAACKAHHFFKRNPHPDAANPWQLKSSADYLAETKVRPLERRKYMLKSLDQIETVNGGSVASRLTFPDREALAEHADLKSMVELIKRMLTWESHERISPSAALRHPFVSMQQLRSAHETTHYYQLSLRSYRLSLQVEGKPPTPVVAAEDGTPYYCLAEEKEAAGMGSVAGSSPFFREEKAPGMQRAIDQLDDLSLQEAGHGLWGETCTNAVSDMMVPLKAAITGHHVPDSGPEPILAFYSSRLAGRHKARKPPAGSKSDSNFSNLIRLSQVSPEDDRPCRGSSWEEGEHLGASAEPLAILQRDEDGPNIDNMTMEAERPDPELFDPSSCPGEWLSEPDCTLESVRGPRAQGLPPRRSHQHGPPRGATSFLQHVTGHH

[9] = target: T4, CLK2 (Homo sapiens, UniProt P49760); details: 5 μM; cited from earlier work
T4 construct: purchased ProQinase (Freiburg, Germany)
T4 sequence (P49760 whole entry): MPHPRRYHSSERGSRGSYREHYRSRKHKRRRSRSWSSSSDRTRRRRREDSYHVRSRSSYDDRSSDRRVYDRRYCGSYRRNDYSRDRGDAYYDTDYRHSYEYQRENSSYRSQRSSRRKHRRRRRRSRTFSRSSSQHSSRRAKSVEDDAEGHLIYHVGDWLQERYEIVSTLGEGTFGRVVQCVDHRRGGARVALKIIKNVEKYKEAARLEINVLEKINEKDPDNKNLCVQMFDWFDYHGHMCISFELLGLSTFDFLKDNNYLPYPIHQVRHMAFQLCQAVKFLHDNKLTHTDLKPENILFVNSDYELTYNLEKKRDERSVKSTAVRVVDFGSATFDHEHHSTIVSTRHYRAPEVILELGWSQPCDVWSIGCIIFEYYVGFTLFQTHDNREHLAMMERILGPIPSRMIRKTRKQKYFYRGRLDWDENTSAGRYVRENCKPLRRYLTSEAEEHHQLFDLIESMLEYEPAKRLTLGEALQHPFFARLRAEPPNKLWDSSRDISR

[10] = target: T5, DYRK3 (Homo sapiens, UniProt O43781); details: 5 μM; cited from earlier work
T5 construct: purchased ProQinase (Freiburg, Germany)
T5 sequence (O43781 1-588): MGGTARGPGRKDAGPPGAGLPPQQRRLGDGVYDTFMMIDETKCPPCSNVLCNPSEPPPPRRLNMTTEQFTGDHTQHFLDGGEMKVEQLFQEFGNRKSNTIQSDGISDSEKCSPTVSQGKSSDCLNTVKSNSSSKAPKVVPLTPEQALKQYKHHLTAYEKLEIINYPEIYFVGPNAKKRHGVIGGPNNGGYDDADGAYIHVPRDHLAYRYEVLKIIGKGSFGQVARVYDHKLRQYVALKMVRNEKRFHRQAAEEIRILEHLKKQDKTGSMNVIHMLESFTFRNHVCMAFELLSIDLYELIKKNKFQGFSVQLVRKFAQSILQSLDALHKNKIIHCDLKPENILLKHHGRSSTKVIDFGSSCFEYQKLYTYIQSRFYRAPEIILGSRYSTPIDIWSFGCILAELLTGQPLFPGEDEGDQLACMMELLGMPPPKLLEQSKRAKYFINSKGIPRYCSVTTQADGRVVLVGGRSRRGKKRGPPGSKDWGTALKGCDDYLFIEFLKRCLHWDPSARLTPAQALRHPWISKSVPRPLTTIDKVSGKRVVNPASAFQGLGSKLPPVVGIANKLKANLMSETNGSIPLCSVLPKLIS

[11] = target: T6, DYRK4 (Homo sapiens, UniProt Q9NR20); details: 5 μM; cited from earlier work
T6 construct: purchased ProQinase (Freiburg, Germany)
T6 sequence (Q9NR20 whole entry): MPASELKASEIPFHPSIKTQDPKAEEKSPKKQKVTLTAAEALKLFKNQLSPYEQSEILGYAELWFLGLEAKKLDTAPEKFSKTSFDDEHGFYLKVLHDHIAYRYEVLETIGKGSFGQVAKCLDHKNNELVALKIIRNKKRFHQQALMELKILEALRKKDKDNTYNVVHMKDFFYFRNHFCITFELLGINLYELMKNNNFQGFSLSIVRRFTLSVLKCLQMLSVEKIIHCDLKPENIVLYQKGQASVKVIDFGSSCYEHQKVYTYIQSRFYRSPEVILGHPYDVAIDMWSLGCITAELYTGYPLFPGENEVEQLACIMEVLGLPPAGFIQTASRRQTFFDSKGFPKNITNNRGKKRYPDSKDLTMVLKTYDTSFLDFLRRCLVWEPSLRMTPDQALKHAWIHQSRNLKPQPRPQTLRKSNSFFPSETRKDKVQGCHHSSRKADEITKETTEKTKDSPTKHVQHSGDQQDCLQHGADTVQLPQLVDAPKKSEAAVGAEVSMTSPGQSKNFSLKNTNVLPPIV

[12] = target: PIM2 (Homo sapiens, UniProt Q9P1W9); parameters: purchased ProQinase (Freiburg, Germany); details: 5 μM; cited from earlier work
PIM2, sequence (Q9P1W9 whole entry): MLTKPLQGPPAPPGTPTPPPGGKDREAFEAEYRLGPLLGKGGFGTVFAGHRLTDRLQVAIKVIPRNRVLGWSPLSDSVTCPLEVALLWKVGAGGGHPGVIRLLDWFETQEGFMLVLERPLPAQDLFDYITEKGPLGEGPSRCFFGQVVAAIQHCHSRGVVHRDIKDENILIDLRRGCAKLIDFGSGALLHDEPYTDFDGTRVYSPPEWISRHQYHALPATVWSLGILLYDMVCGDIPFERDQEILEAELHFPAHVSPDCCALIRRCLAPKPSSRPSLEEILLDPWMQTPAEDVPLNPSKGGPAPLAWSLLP

[13] = tested on: MAO-A; parameters: method as in PMID 25240617; details: 1 μM; cited from earlier work

| SMILES | Residual activity (% of control) ([1]; 5 μM) | Residual activity (% of control) [2] | Residual activity (% of control) [3] | Residual activity (% of control) [4] | Residual activity (% of control) [5] | Residual activity (% of control) [6] | Residual activity (% of control) [7] | Residual activity (% of control) [8] | Residual activity (% of control) [9] | Residual activity (% of control) [10] | Residual activity (% of control) [11] | Residual activity (% of control) [12] | inhibition of DYRK1A ([1]; 1 μM) | inhibition of MAO-A [13] |
| --- | --- | --- | --- | --- | --- | --- | --- | --- | --- | --- | --- | --- | --- | --- |
| c1ccc(-c2cc(-c3cncs3)cs2)cc1 [Thiophene 29] | 10 % of control | 7 % of control | 4 % of control | 0 % of control | 78 % of control | 96 % of control | 88 % of control | 93 % of control | 28 % of control | 34 % of control | 87 % of control | 93 % of control |  |  |
| CCCCCCCn1c2cc(OC)ccc2c2ccnc(C)c21 [N9-heptyl harmine] |  |  |  |  |  |  |  |  |  |  |  |  | 85% | 13% |
